Laboratory results published in patent publication US6777442B2, “Diphenyl derivatives” (Bayer Aktiengesellschaft, priority 2001, dated 2004).

Test: T3 promoter assay cell test (luciferase reporter)
Format: cell-based
Conditions: Homo sapiens; HepG2 cells, luciferase induction, costimulator retinoic acid, incubation 48 or 72 hours
Description: The activity of the compounds according to the invention can be examined, for example, in vitro by the known T3 promoter assay cell test, described below:
The test is carried out using a stabily transfected human HepG2 hepatocarcinoma cell which expresses a luciferase gene under the control of a thyroid-hormone-regulated promoter. The vector used for transfection carries, upstream of the luciferase gene, a minimal thymidine kinase promoter with a thyroid-hormone-responsive element (TRE) comprising two inverted palindromes of in each case 12 bp and one 8 bp spacer.
For the test, the cell cultures are sown in 96-well plates in Eagle's Minimal Essential Medium, with the following additives: glutamine, tricine, [N-(tris-hydroxymethyl)-methyl)glycine], sodium pyruvate, non-essential amino acids (L-Ala, L-Asn, L-Asp, L-Pro, L-Ser, L-Glu, Gly), insulin, selenium and transferrin. The cultures are grown at 37° C. in a 10% CO2 atmosphere for 48 hours. Serial dilutions of test substance or reference compound (T3, T4) and the costimulator retinoic acid are then added to the test cultures, which are then incubated as above for a further 48 or 72 hours. […] To determine the luciferase, induced by T3 or other substances, the cells are then lyzed by addition of a triton- and luciferin-containing buffer (from Promega) and immediately measured luminometrically. For each compound, the EC50 is calculated. […]

SMILES: Cc1cc(OCC(=O)O)cc(C)c1Cc1ccc(O)c(S(=O)(=O)c2ccc(F)cc2)c1 [Example 2, (4-{3-[(4-Fluorophenyl)sulphonyl]-4-hydroxybenzyl}-3,5-dimethylphenoxy)acetic acid]
- EC50: 2 nM
